What was measured:
Assay type in all cases: biochemical
recombinant Aurora A = biological target: T1, recombinant Aurora A (Homo sapiens, UniProt O14965); assay: Aurora A (Aurora 2) inhibition assay, Z'-Lyte kinase assay; settings: ATP 10 μM, 1 h; less than or equal to 100 nM
T1 construct: purchased Upstate, Lake Placid, N.Y
T1 sequence (O14965 1-403): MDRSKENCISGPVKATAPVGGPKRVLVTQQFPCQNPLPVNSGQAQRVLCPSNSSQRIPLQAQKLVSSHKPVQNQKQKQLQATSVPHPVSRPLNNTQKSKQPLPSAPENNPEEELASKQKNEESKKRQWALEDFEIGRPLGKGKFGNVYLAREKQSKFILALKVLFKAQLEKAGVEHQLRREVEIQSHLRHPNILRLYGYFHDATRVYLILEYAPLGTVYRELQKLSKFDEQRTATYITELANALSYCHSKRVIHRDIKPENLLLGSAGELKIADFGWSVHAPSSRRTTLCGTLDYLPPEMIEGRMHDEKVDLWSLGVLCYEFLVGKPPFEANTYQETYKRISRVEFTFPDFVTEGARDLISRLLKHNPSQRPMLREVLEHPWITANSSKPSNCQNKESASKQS
Method: Compounds were tested for their potency against recombinant Aurora A (Upstate, Lake Placid, N.Y.) using the PanVera Z′-Lyte kinase assay kit-Ser/Thr 1 peptide (Invitrogen, Carlsbad, Calif.). Assays were carried out in kinase assay buffer (50 mM HEPES, pH 7.5, 10 mM MgCl2, 5 mM EGTA, 0.05% Brij-35, 2 mM DTT). Test compounds were initially dissolved in DMSO at 100× the highest tested concentration, then serially diluted to 4× test concentrations in kinase assay buffer. Next, Aurora A (final concentration 200-500 ng/mL), Z′-Lyte Ser/Thr 1 peptide (final concentration 2 μM) and ATP (final concentration 10 μM) were added according to the manufacturer's instructions. Assays were carried out in half-area 96-well white polystyrene assay plates (Corning, Corning, N.Y.) in a final volume of 20 μl. The reaction was allowed to proceed for 1 h at room temperature in the dark, at which point the development reagent and stop reagent were added according to the manufacturer's instructions. Coumarin (Ex. 400 nm, Em. 465 nm) and fluorescein (Ex. 400 nm, Em. 565 nm) fluorescence values were measured on a SpectraFluor Plus plate reader (Tecan, Durham, N.C.). The emission ratio (coumarin/fluorescein) was determined and used to calculate the percent phosphorylation for each well. Wells containing substrate but no kinase and wells containing a phosphopeptide control were used to set 0% and 100% phosphorylation values, respectively. Typically 20-40% of the substrate was phosphorylated in wells without inhibitor. Dose-response curves of relative Aurora A activity vs. inhibitor concentration were plotted with Grafit (Erithacus Software, Horley, Surrey, UK).

[1] = biological target: T2, N-terminal His-tagged human Src (Homo sapiens, UniProt P12931); assay: Src kinase inhibition assay (33P-ATP filter assay); settings: 40 minutes, room temperature; less than or equal to 100 nM
T2 construct: His (N); purchased Upstate USA Inc, Charlottesville, Va
Method: Compounds were assayed for Src kinase inhibitory activity using N-terminal His-tagged human Src (Upstate USA Inc, 706 Forest Street, Charlottesville, Va.). Serial dilutions of compound were assayed in a final reaction volume of 25 μL by incubating a solution of the above Src kinase (5-10 mU), 8 mM MOPS (3-(N-morpholino)propanesulfonic acid) pH 7.0, 0.2 mM EDTA (ethylenediamine tetracetic acid), 250 μM amino acid sequence KVEKIGEGTYGVVYK (Upstate USA Inc, 706 Forest Street, Charlottesville, Va.), and 10 mM magnesium acetate and [γ-^33P-ATP] (specific activity of about 500 cpm/pmol, concentration as required). The reaction was initiated by the addition of the magnesium acetate and [γ-^33P-ATP] mixture. After incubation for 40 minutes at room temperature, the reaction was stopped by the addition of 5 μL of a 3% phosphoric acid solution. A 10 μL aliquote of the reaction was then spotted onto a P30 filtermat (PerkinElmer, Wellesley, Mass.) and washed three times for five minutes in 75 mM phosphoric acid and once in methanol prior to drying and scintillation counting. Inhibition of Src activity was determined by comparison to assays that contained no inhibitor.

[2] = biological target: T3, N-terminal GST-tagged recombinant human Flt3, residues 564-end (Homo sapiens, UniProt P36888); assay: Flt3 kinase inhibition assay (33P-ATP filter assay); settings: 40 minutes, room temperature; less than or equal to 100 nM
T3 construct: recombinant human Flt3, residues 564-end; GST (N); purchased Upstate USA Inc, Charlottesville, Va
T3 sequence (P36888 564-993 limits assumed): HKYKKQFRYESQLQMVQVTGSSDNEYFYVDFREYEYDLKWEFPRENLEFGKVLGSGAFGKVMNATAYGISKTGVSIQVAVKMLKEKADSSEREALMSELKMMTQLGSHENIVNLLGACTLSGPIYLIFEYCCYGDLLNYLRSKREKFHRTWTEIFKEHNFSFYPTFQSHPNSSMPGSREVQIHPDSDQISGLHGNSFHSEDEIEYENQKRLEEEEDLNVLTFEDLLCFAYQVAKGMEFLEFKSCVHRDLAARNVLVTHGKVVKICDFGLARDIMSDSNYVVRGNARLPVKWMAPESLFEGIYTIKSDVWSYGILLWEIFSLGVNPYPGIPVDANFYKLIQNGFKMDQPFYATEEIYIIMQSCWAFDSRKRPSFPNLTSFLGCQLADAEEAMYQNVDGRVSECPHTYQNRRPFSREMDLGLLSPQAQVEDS
Method: (§1) Compounds were assayed for Flt3 kinase inhibitory activity using N-terminal GST-tagged recombinant human Flt3, residues 564-end (Upstate USA Inc, 706 Forest Street, Charlottesville, Va.). Serial dilutions of compound were assayed in a final reaction volume of 25 μL by incubating a solution of the above Flt3 kinase (5-10 mU), 8 mM MOPS (3-(N-morpholino)propanesulfonic acid) pH 7.0, 0.2 mM EDTA (ethylenediamine tetracetic acid), 50 μM amino acid sequence EAIYAAPFAKKK (Upstate USA Inc, 706 Forest Street, Charlottesville, Va.), and 10 mM magnesium acetate and [γ-^33P-ATP] (specific activity of about 500 cpm/pmol, concentration as required). The reaction was initiated by the addition of the magnesium acetate and [γ-^33P-ATP] mixture. After incubation for 40 minutes at room temperature, the reaction was stopped by the addition of 5 μL of a 3% phosphoric acid solution. A 10 μL aliquote of the reaction was then spotted onto a P30 filtermat (PerkinElmer, Wellesley, Mass.) and washed three times for five minutes in 75 mM phosphoric acid and once in methanol prior to drying and scintillation counting. Inhibition of Flt3 activity was determined by comparison to assays that contained no inhibitor.

Aurora B kinase = biological target: T4, Aurora B kinase (Homo sapiens, UniProt Q96GD4); assay: Aurora B (Aurora 1) inhibition assay, Z'-Lyte kinase assay; settings: ATP 50 μM, 16 h; less than or equal to 100 nM
T4 construct: purchased BPS Biosciences, San Diego, Calif

[3] = biological target: T5, N-terminal His6-tagged recombinant human KDR, residues 790-end (Homo sapiens, UniProt P35968); assay: KDR kinase inhibition assay (33P-ATP filter assay); settings: 40 minutes, room temperature; less than or equal to 100 nM
T5 construct: recombinant human KDR, residues 790-end; His6 (N); purchased Upstate USA Inc, Charlottesville, Va
Method: as §1, with “KDR” for “Flt3”, “His6-tagged” for “GST-tagged”, “KDR,” for “Flt3,”, “790-end” for “564-end”, “0.33 mg/mL myelin basic protein” for “50 μM amino acid sequence EAIYAAPFAKKK”

Measured: IC50

T2 sequence (P12931 whole entry): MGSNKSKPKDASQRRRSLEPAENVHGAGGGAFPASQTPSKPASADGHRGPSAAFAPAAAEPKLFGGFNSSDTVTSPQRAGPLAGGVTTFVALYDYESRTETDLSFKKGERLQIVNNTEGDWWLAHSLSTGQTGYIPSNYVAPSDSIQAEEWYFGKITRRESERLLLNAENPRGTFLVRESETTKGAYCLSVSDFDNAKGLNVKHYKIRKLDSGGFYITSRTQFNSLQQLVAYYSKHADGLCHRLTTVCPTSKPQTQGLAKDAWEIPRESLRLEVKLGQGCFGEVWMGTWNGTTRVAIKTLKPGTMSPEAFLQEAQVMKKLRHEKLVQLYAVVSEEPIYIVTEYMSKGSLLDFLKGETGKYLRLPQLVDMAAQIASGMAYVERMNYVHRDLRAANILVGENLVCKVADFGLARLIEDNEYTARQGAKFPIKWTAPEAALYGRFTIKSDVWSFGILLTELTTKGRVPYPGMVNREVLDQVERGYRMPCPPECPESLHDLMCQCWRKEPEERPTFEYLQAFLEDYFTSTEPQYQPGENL
T5 sequence (P35968 790-1356 limits assumed): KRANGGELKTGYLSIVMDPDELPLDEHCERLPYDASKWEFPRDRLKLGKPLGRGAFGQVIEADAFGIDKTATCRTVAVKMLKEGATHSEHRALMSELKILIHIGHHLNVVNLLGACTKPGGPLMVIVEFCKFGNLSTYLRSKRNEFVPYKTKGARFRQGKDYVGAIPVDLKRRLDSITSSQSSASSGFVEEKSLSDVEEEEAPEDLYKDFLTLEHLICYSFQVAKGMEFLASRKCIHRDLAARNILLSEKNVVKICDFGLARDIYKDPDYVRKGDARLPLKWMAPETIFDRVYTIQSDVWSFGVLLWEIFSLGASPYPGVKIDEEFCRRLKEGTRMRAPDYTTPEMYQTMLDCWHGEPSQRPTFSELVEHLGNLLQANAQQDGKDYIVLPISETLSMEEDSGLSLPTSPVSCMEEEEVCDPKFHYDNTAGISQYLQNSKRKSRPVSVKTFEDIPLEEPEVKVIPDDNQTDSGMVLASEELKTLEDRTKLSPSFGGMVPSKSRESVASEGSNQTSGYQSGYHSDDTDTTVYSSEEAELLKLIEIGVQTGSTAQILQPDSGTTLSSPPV
T4 sequence (Q96GD4 whole entry): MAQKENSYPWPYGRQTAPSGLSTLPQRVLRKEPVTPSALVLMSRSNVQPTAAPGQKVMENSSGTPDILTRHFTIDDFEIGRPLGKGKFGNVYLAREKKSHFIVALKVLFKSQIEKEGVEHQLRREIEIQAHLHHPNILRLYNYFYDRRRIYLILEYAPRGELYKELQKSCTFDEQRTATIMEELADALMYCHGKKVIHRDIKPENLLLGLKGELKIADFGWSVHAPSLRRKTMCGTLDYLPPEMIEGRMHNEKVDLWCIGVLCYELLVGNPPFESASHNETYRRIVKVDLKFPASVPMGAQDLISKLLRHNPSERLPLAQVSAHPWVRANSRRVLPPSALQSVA

Cc1cc(Nc2cc(N3CC(O)(C4CC4)C3)nc(/C=C/c3ccccc3)n2)n[nH]1 [Compound 3, (E)-3-cyclopropyl-1-(6-(5-methyl-1H-pyrazol-3-ylamino)-2-styrylpyrimidin-4-yl)azetidin-3-ol]
≤ 100 nM: all assays above

Cc1cc(Nc2cc(N3CCC(N4CCOCC4)CC3)nc(/C=C/c3ccccc3)n2)n[nH]1 [Compound 7, (E)-N-(5-methyl-1H-pyrazol-3-yl)-6-(4-morpholinopiperidin-1-yl)-2-styrylpyrimidin-4-amine]
≤ 100 nM: all assays above

Cc1cc(Nc2cc(N3CCN(CC4CCCO4)CC3)nc(/C=C/c3ccccc3)n2)n[nH]1 (stereo not drawn) [Compound 24, (E)-N-(5-methyl-1H-pyrazol-3-yl)-2-styryl-6-(4-((tetrahydrofuran-2-yl)methyl)piperazin-1-yl)pyrimidin-4-amine]
not listed: Aurora B kinase
≤ 100 nM: all other assays above

Cc1cc(Nc2cc(N3CCC(CN4CCCCC4)CC3)nc(/C=C/c3ccccc3)n2)n[nH]1 [Compound 30]
not listed: Aurora B kinase
≤ 100 nM: all other assays above

Reference: US20110318393A1, “Substituted Pyrazole Compounds” (MIIKANA THERAPEUTICS, INC., priority 2008, published 2011)
